{"source": "patent US4795761A", "about": "“Contraceptive composition” (Euroceltique S.A., priority 1986, dated 1989)", "key": {"human sperm": {"system": "human sperm", "assay": "Human sperm motility, transmembrane migration ratio (two-chamber membrane method)", "type": "cell-based", "details": "for inhibition at 25000 µM: beta-blocker 25 mM alone; for inhibition at 100 µM: beta-blocker 0.1 mM alone", "experimental": "A simple method for measuring human sperm motility was developed as a modification to the method of C. […] The method used two chambers separated by a membrane and assessed the proportion of spermatozoa, from a small aliquot of semen, that moved across the membrane from the upper to the lower chamber.\nThe apparatus consisted of an upper and a lower chamber, the upper chamber being the plunger of a 2 ml disposable syringe. A 13 mm diameter Nuclepore membrane filter was bonded to the plunger using dichloromethane.\nThe mixture was pre-incubated at 37° C. for 10 minutes.\nAfter pre-incubation the mixture was vortexed and 100 μl was pipetted onto the membrane of the upper chamber. The upper chamber was then inserted into the lower chamber, which contained 2 ml of phosphate buffered saline at 37° C.\nThe relative positions of the two chambers were fixed so that the fluid levels were equal.\nThe apparatus was then incubated for 90 mins. at 37° C. After this time, the upper chamber was removed and its contents were washed into 1.9 ml phosphate buffered saline containing 50 ul of 10% formalin solution by breaking the membrane. The spermatozoa in the lower chamber were also killed by adding 50 ul of the formalin to the lower chamber.\nFinally, the number of spermatozoa in the upper and lower chambers were counted using a haemocytometer. The proportion of spermatozoa that traverse the membrane into the lower chamber is referred to as the transmembrane migration ratio.\nUsing the same technique, but a different sperm source the control of sperm motility achieved by nonoxynol-9, various beta-blockers and mixtures of nonoxynol-9 and a beta-blocker was measured. […] Again, mM represents millimolar."}, "[1]": {"details": "cited from earlier work"}, "[2]": {"details": "Homo sapiens, Sperm, Table 2, beta-blocker 1.0 mM alone, read-out: % Inhibition of Sperm Motility"}, "[3]": {"details": "Homo sapiens, Sperm, Table 5, beta-blocker 1 mM alone, read-out: % Inhibition of Sperm Motility"}, "[4]": {"details": "Homo sapiens, Sperm, Table 3, beta-blocker 1.0 mM alone, read-out: % Inhibition of Sperm Motility"}}, "note": "Like-named read-outs stand apart in the source and are kept apart here."}
{"molecule": "CC(C)NCC(O)COc1cccc2ccccc12", "note": "(racemic) [d,1-Propranolol]", "values": [{"measurement": "inhibition at 1000 µM", "setting": "human sperm; [2]", "value": 24.6, "unit": "%"}, {"measurement": "inhibition at 1000 µM", "setting": "human sperm; [3]", "value": 10.5, "unit": "%"}]}
{"molecule": "C=CCc1ccccc1OC[C@@H](O)CNC(C)C", "note": "[1-Alprenolol]", "values": [{"measurement": "inhibition at 1000 µM", "setting": "human sperm; [2]", "value": 17, "unit": "%"}, {"measurement": "inhibition at 1000 µM", "setting": "human sperm; [4]", "value": 26.9, "unit": "%"}]}
{"molecule": "CCCC(=O)Nc1ccc(OCC(O)CNC(C)C)c(C(C)=O)c1", "note": "(stereo not drawn) [Acebutolol]", "values": [{"measurement": "inhibition at 25000 µM", "setting": "human sperm; Homo sapiens, Sperm, Table 4", "value": 11.3, "unit": "%"}]}
{"molecule": "CCc1cccc2cc(C(O)CNC(C)(C)C)oc12", "note": "(stereo not drawn) [Bufuralol]", "values": [{"measurement": "inhibition at 1000 µM", "setting": "human sperm; Homo sapiens, Sperm, read-out: % Inhibition of Sperm Motility, Table 2, beta-blocker 1.0 mM alone", "value": 28.5, "unit": "%"}, {"measurement": "inhibition at 1000 µM", "setting": "human sperm; Homo sapiens, Sperm, read-out: % Inhibition of Sperm Motility, Table 3, beta-blocker 1.0 mM alone", "value": 22, "unit": "%"}, {"measurement": "apparent octanol/buffer (pH 7.4) partition coefficient", "setting": "[1]", "value": "greater than 1"}]}
{"molecule": "COCCc1ccc(OCC(O)CNC(C)C)cc1", "note": "(stereo not drawn) [Metoprolol]", "values": [{"measurement": "inhibition at 10000 µM", "setting": "human sperm; Homo sapiens, Sperm, Table 2, beta-blocker 10.0 mM alone", "value": 7.1, "unit": "%"}, {"measurement": "inhibition at 10000 µM", "setting": "human sperm; Homo sapiens, Sperm, Table 3, beta-blocker 10 mM alone", "value": 0, "unit": "%"}]}
{"molecule": "C=CCOc1ccccc1OCC(O)CNC(C)C", "note": "(stereo not drawn) [Oxprenolol]", "values": [{"measurement": "inhibition at 5000 µM", "setting": "human sperm; Homo sapiens, Sperm, Table 2, beta-blocker 5.0 mM alone", "value": 3.4, "unit": "%"}, {"measurement": "inhibition at 5000 µM", "setting": "human sperm; Homo sapiens, Sperm, Table 3, beta-blocker 5 mM alone", "value": 0, "unit": "%"}]}
{"molecule": "CC(C)(C)NC[C@H](O)COc1ccccc1C1CCCC1", "note": "[Penbutolol]", "values": [{"measurement": "inhibition at 100 µM", "setting": "human sperm; Homo sapiens, Sperm, Table 2", "value": 6.2, "unit": "%"}, {"measurement": "inhibition at 100 µM", "setting": "human sperm; Homo sapiens, Sperm, Table 3", "value": 0, "unit": "%"}, {"measurement": "inhibition at 100 µM", "setting": "human sperm; Homo sapiens, Sperm, Table 5", "value": 17.8, "unit": "%"}, {"measurement": "apparent octanol/buffer (pH 7.4) partition coefficient", "setting": "[1]", "value": "greater than 1"}]}
{"molecule": "CC(C)NCC(O)COc1cccc2[nH]ccc12", "note": "(stereo not drawn) [Pindolol]", "values": [{"measurement": "inhibition at 25000 µM", "setting": "human sperm; Homo sapiens, Sperm, Table 3", "value": 10.2, "unit": "%"}]}
{"molecule": "CC(C)(C)NC[C@H](O)COc1nsnc1N1CCOCC1", "note": "[Timolol]", "values": [{"measurement": "inhibition at 25000 µM", "setting": "human sperm; Homo sapiens, Sperm, Table 4", "value": 4.9, "unit": "%"}]}
{"molecule": "C=CCc1ccccc1OCC(O)CNC(C)C", "note": "(stereo not drawn) [alprenolol]", "values": [{"measurement": "apparent octanol/buffer (pH 7.4) partition coefficient", "setting": "[1]", "value": "greater than 1"}]}
{"molecule": "CC(C)NC[C@@H](O)COc1cccc2ccccc12", "note": "[d-Propranolol]", "values": [{"measurement": "inhibition at 1000 µM", "setting": "human sperm; Homo sapiens, Sperm, Table 1, d-Propranolol 1.0 mM alone, % of control, read-out: % Inhibition of Sperm Motility", "value": 28, "unit": "%"}, {"measurement": "inhibition at 2500 µM", "setting": "human sperm; Homo sapiens, Sperm, Table 1, d-Propranolol 2.5 mM alone, % of control", "value": 76.5, "unit": "%"}, {"measurement": "inhibition at 1000 µM", "setting": "human sperm; [2]", "value": 3.6, "unit": "%"}, {"measurement": "inhibition at 1000 µM", "setting": "human sperm; [4]", "value": 4, "unit": "%"}, {"measurement": "inhibition at 1000 µM", "setting": "human sperm; [3]", "value": 0.2, "unit": "%"}]}
{"molecule": "Nonoxynol-9", "values": [{"measurement": "% Inhibition of Sperm Motility", "setting": "human sperm; Table 1, Nonoxynol-9 0.16 mM alone, % of control", "value": 12.5, "unit": "%"}, {"measurement": "% Inhibition of Sperm Motility", "setting": "human sperm; Table 1, Nonoxynol-9 1.6 mM alone, % of control", "value": 97.7, "unit": "%"}, {"measurement": "% Inhibition of Sperm Motility", "setting": "human sperm; Table 2, different sperm source, Nonoxynol-9 at its IC50, alone", "value": 50, "unit": "%"}, {"measurement": "% Inhibition of Sperm Motility", "setting": "human sperm; Table 3, another sperm source, Nonoxynol-9 at its IC50, alone", "value": 50.0, "unit": "%"}, {"measurement": "% Inhibition of Sperm Motility", "setting": "human sperm; Table 4, another sperm source, Nonoxynol-9 at its IC50, alone", "value": 50.0, "unit": "%"}]}
{"molecule": "Octoxynol", "values": [{"measurement": "% Inhibition of Sperm Motility", "setting": "human sperm; Table 5, another sperm source, Octoxynol at its IC50, alone", "value": 50.0, "unit": "%"}]}
